Assay [1] deals with T1, High affinity nerve growth factor receptor (Homo sapiens, UniProt P04629). To be noted: dose 100.0 nM.
Description: Inhibition of TRKA (unknown origin) at 100 nM ScanElect kinase assay relative to control
The target of assay [2] is T1, High affinity nerve growth factor receptor. To be noted: dose 100.0 nM. This is another data set of the same source.
Description: Inhibition of TRKA (unknown origin) at 100 nM relative to control
The next assay deals with KM12. Description: cells. To be noted: Homo sapiens, KM12, 72 h.
The target in assay [3] is Tyrosine-protein kinase JAK2 (Homo sapiens, UniProt O60674). Nature of the assay: Inhibition of JAK2 (unknown origin) by Z-LYTE Kinase assay.
Sequence of Tyrosine-protein kinase JAK2 (O60674 whole entry): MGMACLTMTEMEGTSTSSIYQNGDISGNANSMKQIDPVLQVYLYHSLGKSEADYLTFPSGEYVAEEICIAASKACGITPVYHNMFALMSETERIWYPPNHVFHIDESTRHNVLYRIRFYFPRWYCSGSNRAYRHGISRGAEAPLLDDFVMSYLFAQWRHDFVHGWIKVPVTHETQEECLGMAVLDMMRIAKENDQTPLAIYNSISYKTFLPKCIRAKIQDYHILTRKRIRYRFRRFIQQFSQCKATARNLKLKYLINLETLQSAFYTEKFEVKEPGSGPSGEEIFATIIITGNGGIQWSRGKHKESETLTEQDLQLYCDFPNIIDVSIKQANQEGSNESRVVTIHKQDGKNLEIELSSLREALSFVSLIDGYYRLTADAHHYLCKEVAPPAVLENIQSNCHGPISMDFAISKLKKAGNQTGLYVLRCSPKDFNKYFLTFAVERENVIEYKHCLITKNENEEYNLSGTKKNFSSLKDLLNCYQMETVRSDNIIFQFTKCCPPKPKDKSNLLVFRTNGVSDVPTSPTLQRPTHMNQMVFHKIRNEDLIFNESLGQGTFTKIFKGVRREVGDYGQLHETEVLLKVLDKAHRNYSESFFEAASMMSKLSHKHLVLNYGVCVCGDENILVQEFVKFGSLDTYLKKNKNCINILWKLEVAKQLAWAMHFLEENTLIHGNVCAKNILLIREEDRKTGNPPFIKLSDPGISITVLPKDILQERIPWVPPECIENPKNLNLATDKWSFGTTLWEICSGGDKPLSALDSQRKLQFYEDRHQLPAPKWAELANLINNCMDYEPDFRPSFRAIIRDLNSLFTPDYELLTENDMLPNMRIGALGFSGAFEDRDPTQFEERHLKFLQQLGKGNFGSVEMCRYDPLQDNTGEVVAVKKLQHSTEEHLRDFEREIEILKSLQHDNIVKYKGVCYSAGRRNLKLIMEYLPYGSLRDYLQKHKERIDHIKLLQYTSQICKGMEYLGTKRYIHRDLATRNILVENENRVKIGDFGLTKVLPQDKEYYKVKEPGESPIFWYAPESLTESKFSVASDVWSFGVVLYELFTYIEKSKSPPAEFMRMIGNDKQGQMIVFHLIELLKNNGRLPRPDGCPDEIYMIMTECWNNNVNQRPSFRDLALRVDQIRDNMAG
The target in assay [4] is Proto-oncogene tyrosine-protein kinase Src (Homo sapiens, UniProt P12931). Description: Inhibition of SRC (unknown origin) by Z-LYTE Kinase assay.
Sequence of Proto-oncogene tyrosine-protein kinase Src (P12931 2-536 limits assumed): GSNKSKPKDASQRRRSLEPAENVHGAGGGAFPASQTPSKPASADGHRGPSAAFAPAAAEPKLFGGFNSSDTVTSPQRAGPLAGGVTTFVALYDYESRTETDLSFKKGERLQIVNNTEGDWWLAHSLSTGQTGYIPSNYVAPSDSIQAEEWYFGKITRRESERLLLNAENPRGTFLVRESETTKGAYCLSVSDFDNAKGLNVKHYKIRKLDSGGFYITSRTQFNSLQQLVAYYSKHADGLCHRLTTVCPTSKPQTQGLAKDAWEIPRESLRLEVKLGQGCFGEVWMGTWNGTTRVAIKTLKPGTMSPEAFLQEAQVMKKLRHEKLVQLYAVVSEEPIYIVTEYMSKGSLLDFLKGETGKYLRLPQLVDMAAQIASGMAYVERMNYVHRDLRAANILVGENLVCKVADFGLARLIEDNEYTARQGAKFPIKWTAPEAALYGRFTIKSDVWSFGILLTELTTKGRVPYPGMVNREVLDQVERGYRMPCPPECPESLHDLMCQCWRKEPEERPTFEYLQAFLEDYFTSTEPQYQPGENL
In the next assay the test system is LS174T. Nature of the assay: Cytotoxicity against human LS174T cells assessed as effect on cell viability incubated for 72 hrs by resazurin based analysis. (In general: Alamar Blue is a resazurin reagent that responds to reducing activity.)
The next assay relates to MDA-MB-231. Nature of the assay: Cytotoxicity against human MDA-MB-231 cells assessed as effect on cell viability incubated for 72 hrs by resazurin based analysis. To be noted: MDA-MB-231, 72 h.
In assay [5] the target is Signal transducer and activator of transcription 3 (Homo sapiens) (UniProt P40763). Description: Induction of thermal stabilization of recombinant STAT3 (127 to 668 residues)(unknown origin) incubated for 3 hrs by SYPRO orange dye based DSF analysis. The note with it: dose 10-100 µM. (In DSF a fluorescence change marks the thermal transition of the protein.)
Sequence of Signal transducer and activator of transcription 3 (Homo sapiens) (P40763 whole entry, the tested form may be a part): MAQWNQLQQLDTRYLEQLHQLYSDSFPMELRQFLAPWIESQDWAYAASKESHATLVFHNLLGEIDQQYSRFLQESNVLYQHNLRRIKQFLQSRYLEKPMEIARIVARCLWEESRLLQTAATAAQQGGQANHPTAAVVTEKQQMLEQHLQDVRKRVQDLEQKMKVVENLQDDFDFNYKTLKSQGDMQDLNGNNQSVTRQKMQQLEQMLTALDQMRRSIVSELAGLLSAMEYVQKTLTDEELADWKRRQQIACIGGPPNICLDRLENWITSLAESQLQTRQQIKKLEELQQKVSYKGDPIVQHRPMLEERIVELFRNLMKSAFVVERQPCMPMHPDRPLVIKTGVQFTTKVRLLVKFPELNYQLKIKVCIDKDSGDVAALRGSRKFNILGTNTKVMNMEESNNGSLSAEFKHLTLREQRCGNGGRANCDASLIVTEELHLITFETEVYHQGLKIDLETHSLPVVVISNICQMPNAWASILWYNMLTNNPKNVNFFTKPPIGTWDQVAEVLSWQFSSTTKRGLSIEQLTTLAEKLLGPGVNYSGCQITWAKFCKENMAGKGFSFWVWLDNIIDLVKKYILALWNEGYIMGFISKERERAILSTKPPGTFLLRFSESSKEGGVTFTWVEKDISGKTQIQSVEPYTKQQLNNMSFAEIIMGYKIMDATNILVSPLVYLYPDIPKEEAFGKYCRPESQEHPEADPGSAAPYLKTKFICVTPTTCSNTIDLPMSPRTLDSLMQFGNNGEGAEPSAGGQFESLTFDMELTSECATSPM
The target is the same in assay [6]. Description: Induction of thermal stabilization of recombinant STAT3 (127 to 668 residues)(unknown origin) assessed as change in melting temperature incubated for 3 hrs by SYPRO orange dye based DSF analysis.
Assay [7] deals with T1, High affinity nerve growth factor receptor. To be noted: dose 10.0 nM.
Description: Inhibition of TRKA (unknown origin) at 10 nM by Z-LYTE Kinase assay relative to control
For assay [8] the target is unchanged. To be noted: dose 100.0 nM. The source holds these as a separate data set.
Description: Inhibition of TRKA (unknown origin) at 100 nM by Z-LYTE Kinase assay relative to control
The target of assay [9] is Signal transducer and activator of transcription 3 (Homo sapiens) (UniProt P40763). Description: Induction of thermal stabilization of recombinant STAT3 (127 to 668 residues)(unknown origin) assessed as reduction in fluorescence intensity incubated for 3 hrs by SYPRO orange dye based DSF analysis. To be noted: dose 100.0 µM.
Assay [10] shares this target. Nature of the assay: Binding affinity to STAT3 (unknown origin) SH2 domain by FP assay.
The target is the same in assay [11]. Description: Induction of thermal stabilization of STAT3 (unknown origin) at 100 uM by thermal shift assay.
The target of assay [12] is L-lactate dehydrogenase A chain (Homo sapiens, UniProt P00338). Nature of the assay: Inhibition of LDHA (unknown origin).
Assay [13] concerns the target BDNF/NT-3 growth factors receptor (Homo sapiens, UniProt Q16620). Nature of the assay: Binding affinity to TRKB (unknown origin) assessed as dissociation constant by KINOMEscan assay.
Assay [14] concerns the target Signal transducer and activator of transcription 3 (Homo sapiens) (UniProt P40763). Description: Inhibition of STAT3 in oncostatin M-stimulated human U3A cells at 20 uM pretreated with compound for 1 hr followed by oncostatin M induction and measured after 6 hrs by luciferase assay relative to control. It is filed as cell-based.

Activity calls are given as the source filed them. The rule behind the calls is not given here. Where only a bound is given, the exact number is not on record here.

T1 sequence (P04629 33-796 limits assumed): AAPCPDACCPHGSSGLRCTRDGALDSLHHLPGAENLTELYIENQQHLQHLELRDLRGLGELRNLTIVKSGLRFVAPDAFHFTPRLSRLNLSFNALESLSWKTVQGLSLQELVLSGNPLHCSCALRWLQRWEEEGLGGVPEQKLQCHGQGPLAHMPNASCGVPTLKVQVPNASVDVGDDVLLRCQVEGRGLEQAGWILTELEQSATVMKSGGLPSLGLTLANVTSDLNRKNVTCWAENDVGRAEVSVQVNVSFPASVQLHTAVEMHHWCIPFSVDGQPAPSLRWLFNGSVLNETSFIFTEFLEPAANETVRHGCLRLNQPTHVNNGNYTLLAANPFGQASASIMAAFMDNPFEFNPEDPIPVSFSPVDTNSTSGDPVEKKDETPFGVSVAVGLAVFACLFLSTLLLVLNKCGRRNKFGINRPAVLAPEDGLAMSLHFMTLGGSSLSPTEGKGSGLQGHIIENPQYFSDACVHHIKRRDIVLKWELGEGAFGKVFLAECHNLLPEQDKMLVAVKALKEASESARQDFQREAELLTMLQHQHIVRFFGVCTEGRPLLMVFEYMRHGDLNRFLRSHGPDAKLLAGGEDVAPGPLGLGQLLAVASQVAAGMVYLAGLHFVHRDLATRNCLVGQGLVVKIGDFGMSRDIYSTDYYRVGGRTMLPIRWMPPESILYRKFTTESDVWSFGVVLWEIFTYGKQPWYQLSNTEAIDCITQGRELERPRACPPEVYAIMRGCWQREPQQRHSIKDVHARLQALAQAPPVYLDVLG
Sequence of BDNF/NT-3 growth factors receptor (Q16620 whole entry): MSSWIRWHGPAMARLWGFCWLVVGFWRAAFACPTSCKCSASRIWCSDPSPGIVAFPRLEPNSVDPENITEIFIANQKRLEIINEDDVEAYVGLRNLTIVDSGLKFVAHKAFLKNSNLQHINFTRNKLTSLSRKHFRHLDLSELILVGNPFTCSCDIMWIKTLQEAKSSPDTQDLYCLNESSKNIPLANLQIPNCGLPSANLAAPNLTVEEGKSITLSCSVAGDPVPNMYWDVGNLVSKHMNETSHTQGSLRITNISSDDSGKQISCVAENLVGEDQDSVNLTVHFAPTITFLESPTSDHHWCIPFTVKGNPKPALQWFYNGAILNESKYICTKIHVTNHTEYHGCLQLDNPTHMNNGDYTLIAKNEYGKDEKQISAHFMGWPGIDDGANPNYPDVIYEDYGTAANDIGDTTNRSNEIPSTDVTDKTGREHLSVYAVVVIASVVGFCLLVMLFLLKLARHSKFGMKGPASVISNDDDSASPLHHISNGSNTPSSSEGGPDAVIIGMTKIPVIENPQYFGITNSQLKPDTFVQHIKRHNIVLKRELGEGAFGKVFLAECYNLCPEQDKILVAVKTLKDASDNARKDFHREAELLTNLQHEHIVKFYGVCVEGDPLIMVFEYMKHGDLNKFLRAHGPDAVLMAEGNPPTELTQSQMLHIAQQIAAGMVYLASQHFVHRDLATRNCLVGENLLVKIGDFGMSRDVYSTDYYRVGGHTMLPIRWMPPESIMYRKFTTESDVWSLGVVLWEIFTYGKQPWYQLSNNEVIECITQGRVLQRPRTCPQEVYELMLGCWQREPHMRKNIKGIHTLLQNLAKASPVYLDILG
Description for KM12: Cytotoxicity against human KM12 cells assessed as inhibition of cell viability incubated for 72 hrs by resazurin based analysis

Broadly, the inhibition is the percentage by which the read-out fell short of the control. The term IC50 denotes the point on the concentration scale where inhibition reaches its midpoint. For `CN(C)c1cccc(-c2cnc(N)c(NCc3cccnc3)n2)c1`, the inhibition in assay [1] stood at 31%; in assay [2], 50%. Also, half-maximal inhibition in the assay with KM12 (IC50) was put at 3700 nM.

For `C[C@@H](Nc1nc(-c2cccc(N(C)C)c2)cnc1N)c1ccccc1`, the IC50 in assay [3] is 530 nM; in [4], 1110 nM; with LS174T it was greater than 10000 nM; in the assay with MDA-MB-231, greater than 10000 nM; in the assay on KM12, less than 300 nM.

Regarding `CN(C)c1cccc(-c2cnc(N)c(NCc3cccc(-c4ccccc4)c3)n2)c1`, the values for the inhibition in assay [1] and in [2] were 5% and 42%, respectively.

With `CN(C)c1cccc(-c2cnc(N)c(NCc3cccc(C(F)(F)F)c3)n2)c1`, the figures for the inhibition in [1] and in assay [2] were 4% and 28%, respectively.

For `CN(C)c1cccc(-c2cnc(N)c(NCc3ccccc3)n2)c1`, the inhibition is 21% in assay [1] and 79% in assay [2].

For the compound `COC(=O)c1cccc(CNc2nc(-c3cccc(N(C)C)c3)cnc2N)c1`, the inhibition amounted to 6% in assay [1] and 48% in [2].

One may read the ΔTm as the shift of the melting midpoint relative to a reference. For `C[C@@H](Nc1nc(-c2cc(C(F)(F)F)cc(C(F)(F)F)c2)cnc1N)c1ccccc1`, in assay [5], the Activity result was “Dose-dependent-effect”. Also, the ΔTm in assay [6] worked out at 0.9 °C.

Take `C[C@@H](Nc1nc(-c2cccc(C(=O)N(C)C)c2)cnc1N)c1ccccc1`: the inhibition in [7] came to 34%; in [8], 74%.

Take `C[C@H](Nc1nc(-c2cc(C(F)(F)F)cc(C(F)(F)F)c2)cnc1N)c1ccccc1`: the Activity result in [5] is “Dose-dependent-effect”. For the same compound, the ΔTm in assay [6] stood at 0.9 °C.

On to `C[C@H](Nc1nc(-c2cccc(C(=O)N(C)C)c2)cnc1N)c1ccccc1`, for which the inhibition in assay [7] was found to be 10%; in assay [8] it was 0%.

As for `Cc1ccc(CNc2nc(-c3cccc(N(C)C)c3)cnc2N)cc1C`, the inhibition was 6% in [1] and 35% in assay [2].

In the case of `Cc1cccc(CNc2nc(-c3cccc(N(C)C)c3)cnc2N)c1`, the values for the inhibition in assay [1] and in [2] were 6% and 26%, respectively.

Take `Nc1ncc(-c2cc(C(F)(F)F)cc(C(F)(F)F)c2)nc1NCc1ccco1`: the Activity result in assay [5] is “Dose-dependent-effect”. Further, the ΔTm in [6] was 0.9 °C.

In the case of `COC(=O)c1cccc(-c2cnc(N)c(NC(C)c3ccccc3)n2)c1` (racemic), in [9], the Activity result is “Dose-dependent-effect”. The result in assay [10] and in [11] was Active. In [12], this compound had an IC50 of 4000 nM. Also, the inhibition came to 28% in assay [1] and 55% in assay [2].

Regarding `CC(Nc1nc(-c2cccc(C(=O)N(C)C)c2)cnc1N)c1ccccc1` (racemic), the inhibition is 41% in [1] and 67% in [2]. Besides, the IC50 in the assay on KM12 was less than 300 nM.

For orientation: Kd means a measure of binding affinity in units of concentration. As to `CC(=O)Nc1cccc(-c2cnc(N)c(NC(C)c3ccccc3)n2)c1` (racemic), the equilibrium dissociation constant (Kd) in [13] stood at 60 nM. Besides, the IC50 in [3] came to 361 nM; in [4] it was 1560 nM.

With `CC(Nc1nc(-c2cc(C(F)(F)F)cc(C(F)(F)F)c2)cnc1N)c1ccccc1` (racemic), in [9], the Activity entry was “Dose-dependent-effect”. In assay [11], the outcome was Active. The inhibition is 40% in [14], 4% in [1] and 10% in assay [2]. Further, the IC50 in the assay on KM12 amounted to 5300 nM.

On to `CC(C)Oc1cccc(-c2cnc(N)c(NC(C)c3ccccc3)n2)c1` (racemic), for which, in assay [9], the Activity result was “Dose-dependent-effect”. In addition, the outcome in [10] and in assay [11] was Active. Further, the results for the inhibition in assay [1] and in [2] were 2% and 21%, respectively.

Consider `CC(Nc1nc(-c2cc(Cl)cc(Cl)c2)cnc1N)c1ccccc1` (racemic), for which the Activity result in [9] is “Dose-dependent-effect”. Further, the result in assay [10] and in assay [11] was Active. In addition, in assay [1], the inhibition worked out at 0%.

The compound `CC(Nc1nc(-c2ccc(-c3ccccc3)cc2)cnc1N)c1ccccc1` (racemic) had an inhibition in [1] of 0%.

Turning to `CC(Nc1nc(-c2ccc(F)cc2)cnc1N)c1ccccc1` (racemic), the Activity result in [9] is “Dose-dependent-effect”. In addition, the result in assay [10] and in [11] was Active. The compound further showed an inhibition in [1] of 4%.

As for `CC(Nc1nc(-c2ccc(NS(C)(=O)=O)cc2)cnc1N)c1ccccc1` (racemic), the inhibition in [1] is 23%; in assay [2] it was 38%.

For `CC(Nc1nc(-c2ccc3c(c2)OCO3)cnc1N)c1ccccc1` (racemic), the inhibition in assay [1] is 14%.

For the compound `CC(Nc1nc(-c2cccc(F)c2)cnc1N)c1ccccc1` (racemic), the Activity result in [9] was “Dose-dependent-effect”. Moreover, the outcome in assay [10] and in assay [11] was Active. Besides, in assay [1], the inhibition came to 3%.

On to `CC(Nc1nc(-c2cccc(N(C)C)c2)cnc1N)c1ccc(S(C)(=O)=O)cc1` (racemic), for which the inhibition in [1] is 4%; in [2], 46%.

With `CC(Nc1nc(-c2cccc(N(C)C)c2)cnc1N)c1cccc(C(F)(F)F)c1` (racemic), the figures for the inhibition in [1] and in [2] were 11% and 44%, respectively.

On to `CC(Nc1nc(-c2cccc(O)c2)cnc1N)c1ccccc1` (racemic), for which the inhibition in assay [1] was 0%.

For `CC(Nc1nc(-c2cccc([N+](=O)[O-])c2)cnc1N)c1ccccc1` (racemic), the Activity entry in [9] was “Dose-dependent-effect”. The outcome in assay [10] and in [11] was Active. For the same compound, the inhibition in assay [1] turned out to be 28%; in assay [2] it was 55%.

Compound `CC(Nc1nc(-c2cccc3ccccc23)cnc1N)c1ccccc1` (racemic) came in with an inhibition in [1] of 14%.

For `CC(Nc1nc(-c2ccccc2)cnc1N)c1ccccc1` (racemic), the results for the inhibition in assay [1] and in assay [2] were 2% and 38%, respectively.

Turning to `CCC(Nc1nc(-c2cccc(N(C)C)c2)cnc1N)c1ccccc1` (racemic), the inhibition came to 24% in assay [1] and 73% in assay [2].

On to `CN(C)c1cccc(-c2cnc(N)c(NC(c3ccccc3)C(C)(C)C)n2)c1` (racemic), for which the inhibition in assay [1] worked out at 11%; in assay [2], 58%.

`COC(=O)c1ccc(-c2cnc(N)c(NC(C)c3ccccc3)n2)cc1` (racemic) displayed an inhibition in [1] of 36%.

On to `COc1ccc(C(C)Nc2nc(-c3cccc(N(C)C)c3)cnc2N)cc1` (racemic), for which the inhibition in assay [1] came to 7%; in [2], 17%.

As for `COc1cccc(C(C)Nc2nc(-c3cccc(N(C)C)c3)cnc2N)c1` (racemic), the results for the inhibition in assay [1] and in [2] were 41% and 66%, respectively.

With `COc1cccc(OC)c1-c1cnc(N)c(NC(C)c2ccccc2)n1` (racemic), the Activity result in [9] is “Dose-dependent-effect”. Moreover, the result in [10] and in [11] was Active. The inhibition in assay [1] was 0%.

In the case of `Cc1cc(C)cc(-c2cnc(N)c(NC(C)c3ccccc3)n2)c1` (racemic), the inhibition in [1] is 2%.

`Cc1ccc(C(C)Nc2nc(-c3cccc(N(C)C)c3)cnc2N)cc1` (racemic): the inhibition in assay [1] came to 10%; in assay [2], 11%.

With `O=C(Nc1cnn2ccc(N3CCC[C@@H]3c3cc(F)ccc3F)nc12)N1CC[C@H](O)C1` [LAROTRECTINIB], the values for the IC50 in the assay on LS174T, in the assay on MDA-MB-231 and in the assay with KM12 were greater than 10000 nM, greater than 10000 nM and 3.8 nM, respectively.

The values above are taken from ChEMBL document CHEMBL6134888, “Challenging the "Undruggable"─Targeting STAT3 but Identifying Potent TrkA-Targeted Inhibitors” (J Med Chem, 2025).
